Data reported in US5725870A, “Methods, composites and articles for contraception” (priority 1996, dated 1998).
Values after ≈ are worked out from the molar mass of the structure shown. Values joined by “and” are separate entries in the source; they are usually repeats but may differ in a detail not shown here. Identical values can stand only once. Like-named read-outs stand apart in the source and are kept apart here.

Tests used:
[1] = Cytotoxicity in HIV experiments, test not described; assay type: cell-based
Text: (§1) and may be prepared by the H2 O2 oxidation of cysteamine (Mills, Jr. et al, J. Am. Chem. Soc., vol. 62, 1173 (1940); and Barnett, J. Chem. Soc., 1944, 5).

[2] = system: HIV; test: Activity against HIV, test not described; assay type: cell-based
Text: as §1

[3] = molecular target: T1, sheep testicular hyaluronidase (Ovis aries, UniProt A0ACI6R774); test: Hyaluronidase inhibition assay; assay type: biochemical; conditions: for Absorbance at 545 nm, Reaction: blank 0.0463
T1 construct: soluble form of GPI-anchored sperm protein
T1 sequence (A0ACI6R774 34-551): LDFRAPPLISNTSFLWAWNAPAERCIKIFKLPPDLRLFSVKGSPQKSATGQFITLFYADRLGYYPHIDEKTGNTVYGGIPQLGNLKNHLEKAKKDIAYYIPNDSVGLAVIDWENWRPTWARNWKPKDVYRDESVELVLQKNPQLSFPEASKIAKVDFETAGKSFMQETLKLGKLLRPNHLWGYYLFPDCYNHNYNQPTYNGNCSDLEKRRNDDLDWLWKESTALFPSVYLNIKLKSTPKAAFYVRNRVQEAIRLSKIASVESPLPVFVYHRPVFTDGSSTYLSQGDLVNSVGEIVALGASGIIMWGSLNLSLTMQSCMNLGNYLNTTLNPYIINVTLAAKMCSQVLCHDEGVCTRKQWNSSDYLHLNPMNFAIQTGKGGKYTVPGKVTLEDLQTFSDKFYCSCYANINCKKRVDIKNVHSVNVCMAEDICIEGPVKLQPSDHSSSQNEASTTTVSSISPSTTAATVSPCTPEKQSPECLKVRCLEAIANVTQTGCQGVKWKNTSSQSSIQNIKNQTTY
Description: Hyaluronidase activity is quantified by measuring the extent of hyaluronic acid hydrolysis. This is measured by determining the concentration of N-acetylglucosamine-reactive material, resulting from enzyme action.
Reaction mixtures contain the following, in a total volume of 0.25 ml: 0.1M sodium acetate, containing 0.15M NaCl, pH 5.5 (Acetate buffer); 7.2 Units sheep testicular hyaluronidase (Sigma, Type III; cat. no. H-2251), from a stock solution dissolved in the Acetate buffer; 0.3 mg/ml hyaluronic acid (Sigma, from bovine vitreous humor, cat-no. H-7630).
The test compound is screened at a concentration of 1 mg/ml, unless aqueous solubility is limited. The enzyme is preincubated with the test agent for 10 minutes prior to starting the reaction by adding hyaluronic acid. Enzyme reactions are determined by the method of Aronson and Davidson (J. Biol. Chem., vol. 242, pp. 437-440 (1967)). Incubations are carried out for 30 minutes at ambient temperature. Reaction product is determined colorimetrically after reaction with p-dimethylaminobenzaldehyde (Reissig et al., J. Biol. Chem., vol. 217, pp. 959-966 (1955)). The absorbance of the resultant adduct is immediately determined at 545 nm.
Differences are determined between absorbencies for reactions run in the presence and absence of hyaluronidase (blank, in which hyaluronidase is added after terminating reaction). This is compared to a standard curve of known amounts of N-acetylglucosamine that were treated identically to enzyme reaction mixtures, and converted to μmole equivalents of N-acetylglucosamine. The data are reported as % inhibition, compared to control. A dose-response curve is generated at several concentrations of test compound if significant inhibition is obtained at the screening concentration.
(§2) IC50 values (those concentrations of inhibitor that produce 50% inhibition under the conditions of the assay) are determined by analyzing enzyme activity as a function of inhibitor concentration, with curve-fitting software (TableCurve 2D, version 3.02; Jandel Scientific).

[4] = system: cystine crystals found in the corneas; conditions: topical aqueous 0.1% and 0.5%; cited from earlier work
[5] = molecular target: T2, Human acrosin (Homo sapiens, UniProt P10323); test: Acrosin inhibition assay; assay type: biochemical; conditions: for Acrosin Activity: control 5.4 ± 0.14; for Acrosin Inhibitor (active yes/no): screened at 1 mg/ml
T2 construct: human acrosin is isolated from washed spermatozoa from frozen semen; from tissue; host or cells: washed human spermatozoa from frozen semen; acid extract, ultrafiltration, Sephadex G-150 pool
T2 sequence (P10323 43-343 limits assumed): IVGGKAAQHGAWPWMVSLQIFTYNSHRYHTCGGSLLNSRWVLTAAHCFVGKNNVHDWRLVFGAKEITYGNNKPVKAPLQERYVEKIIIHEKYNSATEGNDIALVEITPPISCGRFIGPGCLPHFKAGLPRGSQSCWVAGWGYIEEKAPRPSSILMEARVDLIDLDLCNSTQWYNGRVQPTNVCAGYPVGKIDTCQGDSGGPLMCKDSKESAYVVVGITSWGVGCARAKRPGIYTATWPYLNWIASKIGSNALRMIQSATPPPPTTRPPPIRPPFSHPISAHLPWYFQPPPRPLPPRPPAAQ
T2 sequence (P10323 20-42 partner limits assumed): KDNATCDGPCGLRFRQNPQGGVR
Description: Human acrosin activity is measured by following the progression of hydrolysis of N-α-benzoyl-L-arginine ethyl ester (BAEE) spectrophotometrically at 253 nm. Enzyme isolation, partial purification and measurement are carried out by methods described in detail by Anderson et al. (Biochem. J., vol. 199, pp. 307-316 (1981)). Briefly, human acrosin is isolated from washed spermatozoa from frozen semen by extraction with 66 mM acetic acid, pH 2.8. The extract is concentrated by ultrafiltration (Amicon PM 10) and applied to a column that contains Sephadex G-150 (superfine); elution is carried out with 55 mM acetic acid that contains 0.1M NaCl. The eluted volume that contains acrosin activity is pooled and used as the source of enzyme.
Enzyme reaction mixtures contain the following: 50 mM sodium phosphate, pH 7.5 (Anderson et al, Arch. Biochem. Biophys., vol. 241, pp. 509-520 (1985)); Enzyme-containing protein (3-5 mIU, where 1 mIU is the amount of enzyme required to hydrolyze 1 nmole BAEE per min); 0.05 mM BAEE; with or without inhibitor, in a total volume of 1.0 ml.
The test compound is screened at a concentration of 1 mg/ml, unless solubility is limited. The enzyme is preincubated with the test agent for 5 minutes prior to starting the reaction by adding BAEE. Reaction blanks, in which either substrate or enzyme has been eliminated, are run in parallel to the reactions.
The rate of change in absorbance at 253 nm is determined. The change in absorbance that corresponds to 1 μmole of BAEE (in a total volume of 1.0 ml) hydrolyzed is taken as 1.15.
The enzyme activity in the presence of each agent is compared with that for the control reaction (no test agent added). The data are reported as % inhibition. […] A dose-response curve is generated at several concentrations of test compound if significant inhibition is obtained at the screening concentration.
Reversibility of acrosin inhibition is determined by the method of Ackermann and Potter (Proc. Soc. Exp. Biol. Med., vol. 72, pp. 1-9 (1949)), in which the level of inhibited enzyme activity is determined in the presence of different amounts of enzyme.
as §2

[6] = system: motile spermatozoa; test: Assessment of spermicidal activity (sperm motility, Sander and Cramer); assay type: cell-based
Description: The method is based on that originally described by Sander and Cramer (F. V. Sander and S. D. Cramer. Human Fertil., vol. 6, pp. 134 (1941)). Apparent spermicidal activity of the test agents are compared to that of a control preparation of nonoxynol-9 (N9).
For the screening of spermicidal activity of a test agent, a solution of 50 mg/ml is prepared in 0.9% NaCl. This solution is adjusted to pH 7.0 with either HCl or NaOH and is further diluted in 0.9% NaCl to concentrations of 25 mg/ml, 10 mg/ml, 5 mg/ml, and 2.5 mg/ml. N9 is prepared as a solution of 100 μg/ml in 0.9% NaCl.
The agents are tested by mixing 40 μl of freshly ejaculated semen with 200 μl of test agent at each concentration. Just prior to and 30 seconds after mixing, the percentage of motile spermatozoa is determined by microscopic observation (400×). If 90-100% inhibition of motility is obtained at the lowest concentration tested, the experiment is repeated with a different range of concentrations, the highest concentration being 2.5 mg/ml. A dose-response curve is constructed.

[7] = system: Lactobacillus gasseri; test: Assay of vaginal lactobacillus growth; assay type: cell-based
Description: Cysteamine was screened with regard to its potential cytotoxicity toward normal vaginal flora. Growth of vaginal lactobacillus was used as a measure of this effect.
Lactobacillus gasseri, obtained from the American Type Culture Collection (Rockville, Md.) is cultured under anaerobic conditions at 37° in the presence of test agent or no additions (control). Beginning at 120 minutes after the start of incubation and at 20 minute intervals, for a total length of 240 minutes, samples are removed from the incubation flasks, and the absorbance of each suspension at 550 nm is determined, as an estimate of cell density. Data are fit to the equation, Ln (Absorbance)=a+b (Time), where a is the absorbance at 0 time, b is the slope of the curve, and time is measured in minutes. The doubling time (TD) is calculated from the equation TD =(Ln 2)/b. Values are given as the doubling time of bacterial growth, together with the 90% confidence limits. Inhibition of bacterial growth by a test agent can be directly calculated from the reciprocal values of the doubling time (i.e., 75% inhibition of the reciprocal of the calculated doubling time is equal to 75% inhibition of bacterial growth).
Dose-response curves are produced by determining the doubling time of the culture in the presence of each of several concentrations of test agent, the exact range of which is determined by the results of the screening test that is described above. The concentration of test agent that inhibits the growth of lactobacillus by 50% (IC50) is determined from the calculated doubling time at each concentration of test agent, with curve-fitting software (TableCurve 2D, version 3.02, Jandel Scientific).

[8] = system: CEM-T4 lymphocytes; conditions: 100 μM, added twice-daily; cited from earlier work
[9] = system: HTLVIIIB; conditions: 100 μM, added twice-daily, CEM-T4 lymphocytes; cited from earlier work
[10] = system: epithelial fibroblasts; conditions: cited from earlier work
[11] = 1 mg/ml test agent, 10 min preincubation

NCCSSCCN [Cystamine]
Cytotoxicity ([1]; 100 μM): little cytotoxicity | Activity against the HIV pathogen [2]: substantial activity

NCCS [cysteamine, Cysteamine]
IC20 [3]: 87 µg/mL (≈ 1130 µM) | IC80 [3]: 219 µg/mL (≈ 2840 µM) | % Inhibition at 1 mg/ml (hyaluronidase) [3, 11]: completely inhibit | inhibition at 1000 µg/mL [3, 11]: 100% | Absorbance at 545 nm, Reaction ([3]; cysteamine 1.6 μg/ml): 0.1892 and 0.1967 | Absorbance at 545 nm, Reaction ([3]; cysteamine 8.0 μg/ml): 0.1955 and 0.1853 | Absorbance at 545 nm, Reaction ([3]; cysteamine 40.0 μg/ml): 0.1775 and 0.1855 | Absorbance at 545 nm, Reaction ([3]; cysteamine 200 μg/ml): 0.0585 and 0.0656 | Absorbance at 545 nm, Reaction ([3]; cysteamine 1,000 μg/ml): 0.0068 and 0.0069 | Hyaluronidase Inhibitor (yes/no) ([3]; summary table): Yes | Reduction of corneal cystine crystals [4]: effective in reducing the cystine crystals | Tolerability in chronic topical use [4]: well-tolerated | Acrosin Activity ([5]; cysteamine 0.08 mg/ml): 5.2 ± 0.74 μmoles BAEE hydrolyzed/min/mg | Acrosin Activity ([5]; cysteamine 0.10 mg/ml): 3.8 ± 0.32 μmoles BAEE hydrolyzed/min/mg | Acrosin Activity ([5]; cysteamine 0.25 mg/ml): 3.4 ± 0.10 μmoles BAEE hydrolyzed/min/mg | Acrosin Activity ([5]; cysteamine 0.50 mg/ml): 2.2 μmoles BAEE hydrolyzed/min/mg | Acrosin Activity ([5]; cysteamine 0.8 mg/ml): 0.9 ± 0.28 μmoles BAEE hydrolyzed/min/mg | Acrosin Activity ([5]; cysteamine 1.0 mg/ml): 0.6 μmoles BAEE hydrolyzed/min/mg | 3 Log reduction (99.9% inhibition) of acrosin ([5]; from fitted curve, above highest tested concentration): 3.3 mg/ml | IC99.9 ([5]; from fitted curve, above highest tested concentration, read-out: 3 Log reduction (99.9% inhibition) of acrosin): 3270 µg/mL | Reversibility of acrosin inhibition ([5]; method of Ackermann and Potter, different amounts of enzyme): consistent with a reversible mechanism of inhibition | Acrosin Inhibitor (active yes/no) [5]: active | Acrosin Inhibitor (active yes/no) ([5]; listed as Cysteamine): Yes | IC50 ([5]; summary table): 4.8 mM | Spermicide (effect on sperm motility, in words) [6]: reduce sperm motility | Spermicide (effect on sperm motility, in words) ([6]; listed as Cysteamine): Yes | % Inhibition at 5 mg/ml (growth of vaginal lactobacillus) [7]: no effect | % Inhibition at 5 mg/ml (growth of vaginal lactobacillus) ([7]; listed as Cysteamine): No inhibition | inhibition at 5000 µg/mL ([7]; Lactobacillus gasseri, read-out: % Inhibition at 5 mg/ml (growth of vaginal lactobacillus)): 0% | Toxicity (cell survival) [8]: 120.8 % of control | Cellular toxicity [1]: lack of cellular toxicity | Survival of treated cells, protection against HTLVIIIB [9]: 133 % of control | Antiviral effect against HIV ([2]; other cell lines and other HIV strains): substantiate the antiviral effect | Cloning efficiency ([10]; 10 μM): severe loss in cloning efficiency | Cloning efficiency ([10]; One hundred μM): zero | Doubling time ([10]; One hundred μM): two-fold increase | Effect on growth rate ([10]; concentrations up to 10 μM): no effect on growth rate

nonylphenoxypolyoxyethene glycol [nonoxynol-9, reference compound]
% Inhibition at 1 mg/ml (hyaluronidase) [3, 11]: 4% | % Inhibition (growth of vaginal lactobacillus) ([7]; Tested at 0.5 mg/ml): 60%
